Measured values from ChEMBL document CHEMBL5303304, “EUbOPEN Chemogenomics Library - IncuCyte” (2023).

Key:
Assay type in all cases: toxicity, cell-based
Fibroblast = assay: Incucyte cell viability with human fibroblast; conditions: 10 µM, compound concentration 10 uM
U2OS = assay: Incucyte cell viability with U2OS; conditions: human, 10 µM, compound concentration 10 uM
HEK-293T = assay: Incucyte cell viability with HEK293T; conditions: human, 10 µM, compound concentration 10 uM
Note: unitless GR value; below 1 slowed growth and below 0 cell loss.

Structure (SMILES)	Growth Rate (Fibroblast; 0 h, replicate number 1)	Growth Rate (Fibroblast; 12 h, replicate number 2)	Growth Rate (Fibroblast; 18 h, replicate number 1)	Growth Rate (Fibroblast; 18 h, replicate number 2)	Growth Rate (Fibroblast; 24 h, replicate number 1)	Growth Rate (Fibroblast; 24 h, replicate number 2)	Growth Rate (U2OS; 12 h, replicate number 1)	Growth Rate (U2OS; 12 h, replicate number 2)	Growth Rate (U2OS; 18 h, replicate number 1)	Growth Rate (U2OS; 18 h, replicate number 2)	Growth Rate (U2OS; 24 h, replicate number 1)	Growth Rate (U2OS; 24 h, replicate number 2)	Growth Rate (HEK-293T; 12 h, replicate number 1)	Growth Rate (HEK-293T; 12 h, replicate number 2)	Growth Rate (HEK-293T; 18 h, replicate number 1)	Growth Rate (HEK-293T; 18 h, replicate number 2)	Growth Rate (HEK-293T; 24 h, replicate number 1)	Growth Rate (HEK-293T; 24 h, replicate number 2)	Growth Rate (Fibroblast; 6 h, replicate number 2)	Growth Rate (U2OS; 6 h, replicate number 1)	other results
CNc1nc(-c2ccc3c(N)n[nH]c3c2)cc(N2C[C@@H](C(=O)NC3CCCCC3)CC[C@H]2C)n1	-0.99	0.96	0.38	0.7	0.22	0.64	0.7	0.8	0.49	0.82	0.51	0.72	0.89	0.66	0.8	0.55	0.72	0.55			Growth Rate (Fibroblast; 12 h, replicate number 1): 0.62; Growth Rate (HEK-293T; 0 h, replicate number 1): -1; Growth Rate (HEK-293T; 0 h, replicate number 2): -0.02
Cc1nc(Nc2cnn(C3CCNCC3)c2)nc2c1N(C)C(=O)c1cc3ccccc3cc1N2C		0.26	-0.22	0.06	-0.14	0.17	-0.83	0.83	0.36	0.65	0.58	0.62	0.41	0.67	0.48	0.63	0.52	0.7	0.56	0.19	Growth Rate (Fibroblast; 6 h, replicate number 1): -0.01; Growth Rate (Fibroblast; 12 h, replicate number 1): -0.05; Growth Rate (U2OS; 6 h, replicate number 2): 0.81; Growth Rate (HEK-293T; 6 h, replicate number 1): 0.03; Growth Rate (HEK-293T; 6 h, replicate number 2): 0.26
Cc1[nH]c2c(N3CCCCC3)c(-c3ccccc3)nn2c(=O)c1-c1ccc(O)cc1	-0.08	0.39	0.73	0.35	0.64	0.24	0.9	0.92	0.85	0.93	0.78	0.82		0.88					0.19	0.77	Growth Rate (U2OS; 0 h, replicate number 1): -0.56; Growth Rate (U2OS; 6 h, replicate number 2): 0.87; Growth Rate (HEK-293T; 0 h, replicate number 1): -0.59; Growth Rate (HEK-293T; 6 h, replicate number 1): 0.95; Growth Rate (HEK-293T; 6 h, replicate number 2): 0.55
CC(C)S(=O)(=O)c1ccccc1Nc1nc(N[C@@H]2CCCN(CCCCCCCNC(=O)COc3cccc4c3C(=O)N(C3CCC(=O)N(C)C3=O)C4=O)C2)ncc1Cl (stereo not given in full)	-1	-0.21	-0.33	-0.36	-0.23	-0.36	0.11	0.08	-0.06	-0.14	-0.24	-0.2	-0.4	-0.61	-0.33	-0.5	-0.27	-0.39	0.48	0.42	Growth Rate (Fibroblast; 6 h, replicate number 1): 0.41; Growth Rate (Fibroblast; 12 h, replicate number 1): -0.14; Growth Rate (U2OS; 0 h, replicate number 1): -1; Growth Rate (U2OS; 6 h, replicate number 2): 0.49; Growth Rate (HEK-293T; 0 h, replicate number 1): -1; Growth Rate (HEK-293T; 0 h, replicate number 2): -0.99; Growth Rate (HEK-293T; 6 h, replicate number 1): -0.52; Growth Rate (HEK-293T; 6 h, replicate number 2): -0.7
CNC(=O)c1ccc(C)c(-n2c(C)cc(OCc3ccc(F)cc3F)c(Br)c2=O)c1 [PH-797804]	-0.91	0.99					0.91	0.75											0.91		Growth Rate (U2OS; 0 h, replicate number 1): -0.97; Growth Rate (U2OS; 0 h, replicate number 2): 0.65; Growth Rate (U2OS; 6 h, replicate number 2): 0.54; Growth Rate (HEK-293T; 0 h, replicate number 2): 0.72
CCS(=O)(=O)Nc1cccc(Oc2cc(F)cc(Nc3ccc(I)cc3F)c2NS(=O)(=O)C2CC2)c1	-1						0.89	0.78	0.91	1	0.78		0.34	0.42	0.6	0.5	0.61	0.48	-0.17	0.85	Growth Rate (Fibroblast; 0 h, replicate number 2): 0.69; Growth Rate (Fibroblast; 6 h, replicate number 1): 0.24; Growth Rate (HEK-293T; 6 h, replicate number 1): 0.37; Growth Rate (HEK-293T; 6 h, replicate number 2): -0.1
